Article PMC8333053, “Synthesis and biological screening of new thiadiazolopyrimidine-based polycyclic compounds” (Scientific Reports, 2021)
Converted amounts (≈) assume the structure as drawn.

Key:
[1] = MTT cytotoxicity assay on normal cells; assay type: cell-based; settings: human, WI38 normal fibroblast cells
Description: (§1) The cytotoxicity of the prepared tri-and tetra-cyclic thiadiazolopyrimidine compounds were examined toward various cancer cell lines, such as liver and breast cancer (MCF-7), prostate cancer (PC3), laryngeal carcinoma (Hep-2), carcinoma (HepG2), and standard normal fibroblast cells (WI38) using the MTT assay[33] at the National Research Centre (Egypt). The cytotoxicity (Table 3) toward 50% inhibition of the cell viability (IC50 values) was assessed using 5-fluorouracil (5-Fu) as the standard anticancer drug.
(§2) The synthesized compounds were subjected to the MTT cytotoxicity assay on the basis of the cited literature.
(§3) MTT cytotoxicity assay: The technical method of MTT assay depends on the reduction of yellow 3-(4,5-methyl-2-thiazolyl)-2,5-diphenyl-2H-tetrazolium bromide (MTT) into purple formazan product, mainly by mitochondrial reductase activity inside the living cells. The cells used in cytotoxicity assay were cultured in RPMI 1640 medium supplemented with 10% fetal calf serum. Cells suspended in the medium (2×10^4 cells/mL) were plated in 96-well culture plates and incubated at 37 °C in a 5% CO2 incubator for 12 hours. The tested sample (2 μL) was added to the cells (2×10^4) in 96-well plates and cultured at 37 °C for 3 days. The cultured cells were mixed with 20 μL of MTT solution and incubated for 4 hours at 37 °C. The supernatant was carefully removed from each well, the formazan crystals were dissolved after addition of DMSO (100 μL) for each well to form the cellular reduction of MTT. After mixing with a mechanical plate mixer, the absorbance of each well was measured by a microplate reader using a test wavelength of 570 nm. The results were expressed as the IC50 values, which inducing 50% inhibition of cell growth of the treated cells when compared to the growth of control cells.

HepG2 = assay: MTT cytotoxicity assay; assay type: cell-based; settings: Homo sapiens, HepG2, 72 h, 3 days
Description: as §1, §2, §3

PC3 = assay: MTT cytotoxicity assay; assay type: cell-based; settings: Homo sapiens, PC-3, 72 h, 3 days
Description: as §1, §2, §3

Hep-2 = assay: MTT cytotoxicity assay; assay type: cell-based; settings: Homo sapiens, HEp-2, 72 h, 3 days
Description: as §1, §2, §3

MCF-7 = assay: MTT cytotoxicity assay; assay type: cell-based; settings: Homo sapiens, MCF7, 72 h, 3 days
Description: as §1, §2, §3

DNA = assay: Bleomycin-dependent DNA damage; assay type: biochemical; settings: test sample 0.1 mg/mL, λ = 532 nm; mean of three replicates ± SD; ascorbic acid 0.24 mM
From the text: Bleomycin-dependent DNA damage. The prepared polycyclic thiadiazolopyrimidine-based compounds were examined through the bleomycin-dependant DNA damage, and the results were compared to that of ascorbic acid as a positive control. The obtained data reflected the ability of these derivatives to protect the DNA from damage. The capability of compounds 16a–b and 17a–b to manifest the best protective effect against DNA damage was indicated by the corresponding absorbance values ranging from 0.031 to 0.053 (Table 4)[35],[36].
Bleomycin-dependent DNA damage experiment: To a mixture of 0.5 mg / mL of DNA, 5 mM magnesium chloride, 50 mM ferric chloride and 0.05 mg / mL bleomycin sulfate was prepared. The test sample was prepared at a concentration of 0.1 mg / mL and added to the mixture. After incubation of the mixture for one hour at 37 °C, 0.05 mL of EDTA (0.1 M) was added to terminate the reaction. In the next step, 0.5 mL of TBA (1% w / v) and 0.5 mL of HCl (25% v / v) were added for colour development and the mixture was heated for 10 minutes at 80 °C. The mixture was centrifuged and the absorbance expressed, the amount of damage to the DNA was measured at λ = 532 nm. L-Ascorbic acid (0.24 mM) was used as a positive control.

Candida albicans = assay: Antifungal MIC, two-fold serial dilution; assay type: cell-based; settings: Fungi, glucose minimal medium, 30°C, 48 h, visual (no turbidity)
Description: (§4) The antimicrobial activity of the synthesized thiadiazolopyrimidine compounds was studied toward diverse pathogenic strains, such as gram-positive bacteria (Staphylococcus aureus ATCC 29213 and Bacillus cereus UW85), gram-negative bacteria (Escherichia coli ATCC 12435 and Pseudomonas aeruginosa ATCC 29260), and fungi (Candida albicans and Aspergillus fumigatus 293). The assessment was performed through the two-fold dilution technique using Ampicillin (antibacterial) and Fluconazole (antifungal) as the reference drugs[28],[29]. The minimal inhibitory concentration (MICs, µg/mL) of the synthesized derivatives for prohibiting microbial growth was determined through the visual detection (no turbidity) technique.
(§5) The synthesized thiadiazolopyrimidine-based compounds were evaluated and adopted for antibacterial and antifungal effectiveness using the approved procedure[38],[39].
(§6) Minimal inhibitory concentrations (MICs) were determined by serial dilution technique using 96-multiwell microtiter plates. The investigated compounds were dissolved in DMSO 100% to prepare stock solutions of 5000 µg/mL. Two-fold serial dilutions of the dissolved compounds were performed in glucose minimal medium providing eight different concentrations (1250, 625, 312.5, 156, 78, 39, 19.5 µg/mL). The microorganisms were diluted to 1 ×10^3 SFU/mL in glucose minimal medium, and 20 µL of the diluted culture was added to the test solutions (50 µL) in the wells (one well per concentration). The plates were incubated at 30°C for 48 h. MIC was detected visually as the least concentration inhibiting fungal growth (no turbidity) and the activity of the tested compounds was estimated in comparison to fluconazole.

[2] = tested on: Aspergillus fumigatus 293; assay: Antifungal MIC, two-fold serial dilution; assay type: cell-based; settings: Fungi, glucose minimal medium, 30°C, 48 h, visual (no turbidity)
Description: as §4, §5, §6

Row | Compound | IC50 at 3 days [1] [µM] | IC50 (HepG2) [µM] | IC50 (PC3) [µM] | IC50 (Hep-2) [µM] | IC50 (MCF-7) [µM] | Absorbance (bleomycin-dependent DNA damage) (DNA) | melting point [°C] | MIC (Candida albicans) [µg/mL] | MIC [2] [µg/mL]
1 | Cc1ccc(N=Nc2c(O)nn3c(N)c4c(=O)nc5scnn5c4nc23)cc1 [Compound 17a, 6-Amino-9-hydroxy-10-(4-methylphenylazo)-5H-pyrazolo[1′,5′:1,2]pyrimido[5,4-e][1,3,4]thiadiazolo[3,2-a]pyrimidin-5-one] | 57.9 ± 1.18 | 38.27 ± 0.17 | 39.4 ± 2.01 | 29.58 ± 0.15 | 9.36 ± 0.23 | 0.053 ± 0.05 | 264 to 265 | > 1250 | 1250 (≈ 3.18 mM)
2 | COc1ccc(N=Nc2c(N)nn3c(N)c4c(=O)nc5scnn5c4nc23)cc1 [Compound 16b, 6,9-Diamino-10-(4-methoxyphenylazo)-5H-pyrazolo[1′,5′:1,2]pyrimido[5,4-e][1,3,4]thiadiazolo[3,2-a]pyrimidin-5-one] | 62.3 ± 3.03 | 42.3 ± 0.75 | 47.9 ± 1.48 | 38.2 ± 0.57 | 5.69 ± 0.39 | 0.031 ± 0.04 | > 320 | > 1250 | > 1250
3 | CC1=C(C#N)C2C(=C(N)O1)C(=O)N=C1SC=NN12 (stereo not drawn) [Compound 9a, 6-Amino-9-cyano-8-methyl-5-oxo-5H,9aH-pyrano[3,4-e][1,3,4]thiadiazolo[3,2-a]pyrimidine] | 36.12 ± 0.28 | 33.2 ± 0.36 | 46.4 ± 1.07 | 20 ± 0.24 | 22.7 ± 0.29 | 0.064 ± 0.06 | 264 to 265 | 312 (≈ 1.2 mM) | > 1250
4 | Cc1nn(-c2ccccc2)c2c1C1C(=C(N)O2)C(=O)N=C2SC=NN21 (stereo not drawn) [Compound 10b, 6-Amino-10-methyl-8-phenyl-8,10b-dihydro-5H-pyrazolo[4′,3′:5,6]pyrano[3,4-e][1,3,4]thiadiazolo[3,2-a]pyrimidin-5-one] | 25.4 ± 0.62 | 37.6 ± 1.26 | 27.3 ± 0.53 | 28.8 ± 1.8 | 27.4 ± 0.49 | 0.119 ± 0.13 | 266 to 267 | > 1250 | > 1250
